In ChEMBL document CHEMBL2401657, “Discovery of new PPARγ agonists based on arylopeptoids” (Bioorg Med Chem Lett, 2013):
Active and inactive are the calls of the source. The rule behind the calls is not given here.

What was measured:
[1] = target: Free fatty acid receptor 1 (Homo sapiens) (UniProt O14842); test: Antagonist activity at FFAR1 (unknown origin) assessed as inhibition of GW9508-induced calcium mobilization at 10 uM preincubated for 20 mins followed by GW9508 induction by fluorescence assay; format: functional
Sequence of Free fatty acid receptor 1 (Homo sapiens) (O14842 whole entry, the tested form may be a part): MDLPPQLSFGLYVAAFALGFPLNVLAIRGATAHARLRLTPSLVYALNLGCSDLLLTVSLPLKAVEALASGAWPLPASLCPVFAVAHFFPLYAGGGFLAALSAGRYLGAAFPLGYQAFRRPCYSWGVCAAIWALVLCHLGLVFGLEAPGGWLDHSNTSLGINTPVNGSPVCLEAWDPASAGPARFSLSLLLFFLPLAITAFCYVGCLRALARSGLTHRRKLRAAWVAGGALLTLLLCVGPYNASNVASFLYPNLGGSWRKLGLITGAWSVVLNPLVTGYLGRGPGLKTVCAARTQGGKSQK

[2] = target: T1, Peroxisome proliferator-activated receptor gamma (Homo sapiens) (UniProt P37231); test: Transactivation of human PPARgamma LBD transfected in mouse embryo fibroblasts at 100 uM after 18 hrs by Gal4-responsive luciferase reporter gene assay relative to rosiglitazone
T1 sequence (whole entry): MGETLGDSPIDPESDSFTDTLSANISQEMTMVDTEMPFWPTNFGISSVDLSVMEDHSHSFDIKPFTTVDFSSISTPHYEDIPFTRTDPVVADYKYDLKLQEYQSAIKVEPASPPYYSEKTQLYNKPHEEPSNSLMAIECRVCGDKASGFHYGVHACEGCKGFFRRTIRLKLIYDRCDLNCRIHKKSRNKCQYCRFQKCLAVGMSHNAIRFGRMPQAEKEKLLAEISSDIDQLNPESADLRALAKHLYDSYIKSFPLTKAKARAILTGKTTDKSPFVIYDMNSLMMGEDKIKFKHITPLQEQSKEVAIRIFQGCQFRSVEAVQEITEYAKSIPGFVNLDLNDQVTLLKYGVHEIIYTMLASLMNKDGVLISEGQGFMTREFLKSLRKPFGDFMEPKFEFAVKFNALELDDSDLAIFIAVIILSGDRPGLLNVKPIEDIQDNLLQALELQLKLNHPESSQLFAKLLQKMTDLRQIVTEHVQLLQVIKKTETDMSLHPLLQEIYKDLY

[3] = target: Free fatty acid receptor 1 (Homo sapiens) (UniProt O14842); test: Agonist activity at FFAR1 (unknown origin) assessed as induction of calcium mobilization at 10 uM by fluorescence assay; format: functional
[4] = Cytotoxicity against mouse embryo fibroblasts; format: cell-based; settings: fibroblast
[5] = target: T1, Peroxisome proliferator-activated receptor gamma (Homo sapiens); test: Transactivation of human PPARgamma LBD transfected in mouse embryo fibroblasts at 100 uM after 18 hrs by Gal4-responsive luciferase reporter gene assay relative to vehicle-treated control
[6] = target: T2, Peroxisome proliferator-activated receptor gamma (Homo sapiens, UniProt P37231); test: Binding affinity to GST-tagged human PPARgamma LBD by ligand displacement assay
T2 sequence (P37231 whole entry): T1 sequence (whole entry)

[7] = target: T3, Peroxisome proliferator-activated receptor delta (Homo sapiens) (UniProt Q03181); test: Transactivation of PPARdelta (unknown origin) relative to control
T3 sequence (whole entry): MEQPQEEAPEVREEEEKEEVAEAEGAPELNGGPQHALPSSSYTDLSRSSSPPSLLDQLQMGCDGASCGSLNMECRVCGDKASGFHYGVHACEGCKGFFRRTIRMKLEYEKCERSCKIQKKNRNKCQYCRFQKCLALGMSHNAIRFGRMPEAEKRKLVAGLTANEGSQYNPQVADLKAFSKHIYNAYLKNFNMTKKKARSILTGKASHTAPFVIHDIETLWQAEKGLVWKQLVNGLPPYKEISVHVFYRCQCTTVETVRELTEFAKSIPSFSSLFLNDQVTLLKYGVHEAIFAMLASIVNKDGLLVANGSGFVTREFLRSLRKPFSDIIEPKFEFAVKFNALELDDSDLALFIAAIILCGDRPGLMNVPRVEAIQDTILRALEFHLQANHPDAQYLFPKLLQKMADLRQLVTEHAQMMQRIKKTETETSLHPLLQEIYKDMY

[8] = target: T4, Retinoic acid receptor RXR-alpha (Homo sapiens) (UniProt P19793); test: Transactivation of RXRalpha (unknown origin) relative to control
T4 sequence (whole entry): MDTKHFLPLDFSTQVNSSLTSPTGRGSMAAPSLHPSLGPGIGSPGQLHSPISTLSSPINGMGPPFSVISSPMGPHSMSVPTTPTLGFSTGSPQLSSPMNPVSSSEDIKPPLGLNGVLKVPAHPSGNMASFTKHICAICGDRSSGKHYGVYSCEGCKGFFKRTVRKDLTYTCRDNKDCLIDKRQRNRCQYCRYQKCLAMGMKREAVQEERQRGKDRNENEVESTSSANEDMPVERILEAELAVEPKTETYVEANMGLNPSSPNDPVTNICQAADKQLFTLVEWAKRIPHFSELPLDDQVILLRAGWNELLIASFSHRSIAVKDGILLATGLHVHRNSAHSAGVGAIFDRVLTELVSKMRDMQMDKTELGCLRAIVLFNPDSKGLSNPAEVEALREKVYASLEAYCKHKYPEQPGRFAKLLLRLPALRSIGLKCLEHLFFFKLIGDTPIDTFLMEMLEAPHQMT

[9] = target: T5, Peroxisome proliferator-activated receptor alpha (Homo sapiens) (UniProt Q07869); test: Transactivation of PPARalpha (unknown origin) relative to control
T5 sequence (whole entry): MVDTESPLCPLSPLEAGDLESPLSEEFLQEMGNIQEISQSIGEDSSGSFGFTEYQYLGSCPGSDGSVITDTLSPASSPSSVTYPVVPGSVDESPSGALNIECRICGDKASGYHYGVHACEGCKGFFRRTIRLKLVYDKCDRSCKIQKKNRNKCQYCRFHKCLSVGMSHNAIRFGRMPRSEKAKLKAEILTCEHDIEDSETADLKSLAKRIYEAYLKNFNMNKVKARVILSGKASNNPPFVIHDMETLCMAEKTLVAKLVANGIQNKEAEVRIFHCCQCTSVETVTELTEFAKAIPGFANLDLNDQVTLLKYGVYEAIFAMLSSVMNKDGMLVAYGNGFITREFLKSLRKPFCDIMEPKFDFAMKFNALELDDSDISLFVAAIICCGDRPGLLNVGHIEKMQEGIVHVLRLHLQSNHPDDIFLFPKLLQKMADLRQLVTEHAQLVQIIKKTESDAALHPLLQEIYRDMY

Structure (SMILES) | inhibition [1] | Activity [2] | Activity [3] | Activity [4] | fold change (FC) [5] | IC50 [6] | fold change (FC) [7] | fold change (FC) [8] | fold change (FC) [9]
CC(C)N(Cc1ccc(C(=O)N(Cc2ccc(CCC(=O)O)cc2)C(C)C)cc1)C(=O)c1ccccc1 | inactive | 24.7% | inactive | Non-toxic | 14.7 | – | – | – | –
CC(C)N(Cc1ccc(CCC(=O)O)cc1)C(=O)c1cccc(CNC(=O)c2ccccc2)c1 | inactive | 27.2% | inactive | Non-toxic | 13.4 | 38.7 µM | < 2 | 5 | < 2
CCN(Cc1cccc(C(=O)N(CC)Cc2ccc(CCC(=O)O)cc2)c1)C(=O)c1ccccc1 | inactive | 20.9% | inactive | Non-toxic | 11.2 | 56.2 µM | < 2 | < 2 | > 2
CC(C)N(Cc1ccc(CCC(=O)O)cc1)C(=O)c1ccc(CNC(=O)c2ccccc2)cc1 | inactive | 21.2% | inactive | Non-toxic | 12.6 | – | – | – | –
CCN(Cc1cccc(C(=O)NCc2ccc(CCC(=O)O)cc2)c1)C(=O)c1ccccc1 | inactive | 23.5% | inactive | Non-toxic | 9.3 | – | – | – | –
CC(C)N(Cc1cccc(C(=O)N(Cc2ccc(CCC(=O)O)cc2)C(C)C)c1)C(=O)c1ccccc1 | inactive | 10.7% | inactive | Non-toxic | 5.3 | – | – | – | –
CCN(Cc1ccc(CCC(=O)O)cc1)C(=O)c1ccc(CN(C(=O)c2ccccc2)C(C)C)cc1 | inactive | 6.9% | inactive | Non-toxic | 3.6 | – | – | – | –
CCN(Cc1ccc(C(=O)N(Cc2ccc(CCC(=O)O)cc2)C(C)C)cc1)C(=O)c1ccccc1 | inactive | 11.6% | inactive | Non-toxic | 6.9 | – | – | – | –
CC(C)N(Cc1ccc(C(=O)NCc2ccc(CCC(=O)O)cc2)cc1)C(=O)c1ccccc1 | inactive | 12.5% | inactive | Non-toxic | 5.7 | – | – | – | –
O=C(O)CCc1ccc(CNC(=O)c2cccc(CNC(=O)c3ccccc3)c2)cc1 | inactive | 14.1% | inactive | Non-toxic | 5.6 | 62.7 µM | < 2 | < 2 | < 2
CCN(Cc1ccc(CCC(=O)O)cc1)C(=O)c1ccc(CNC(=O)c2ccccc2)cc1 | inactive | 11.8% | inactive | Non-toxic | 6.2 | – | – | – | –
CCN(Cc1ccc(C(=O)N(CC)Cc2ccc(CCC(=O)O)cc2)cc1)C(=O)c1ccccc1 | inactive | 13.8% | inactive | Non-toxic | 7.3 | – | – | – | –
CCN(Cc1ccc(CCC(=O)O)cc1)C(=O)c1cccc(CNC(=O)c2ccccc2)c1 | inactive | 15.1% | inactive | Non-toxic | 8.1 | – | – | – | –
CCN(Cc1ccc(C(=O)NCc2ccc(CCC(=O)O)cc2)cc1)C(=O)c1ccccc1 | inactive | 13.1% | inactive | Non-toxic | 6 | – | – | – | –
O=C(O)CCc1ccc(CNC(=O)c2ccc(CNC(=O)c3ccccc3)cc2)cc1 | inactive | 5.4% | inactive | Non-toxic | 2.5 | – | – | – | –
CC(C)N(Cc1cccc(C(=O)NCc2ccc(CCC(=O)O)cc2)c1)C(=O)c1ccccc1 | inactive | 18.4% | inactive | Non-toxic | 7.3 | – | – | – | –
CCN(Cc1ccc(CCC(=O)O)cc1)C(=O)c1cccc(CN(C(=O)c2ccccc2)C(C)C)c1 | inactive | 11.6% | inactive | Non-toxic | 6.2 | – | – | – | –
CCN(Cc1cccc(C(=O)N(Cc2ccc(CCC(=O)O)cc2)C(C)C)c1)C(=O)c1ccccc1 | inactive | 11.8% | inactive | Non-toxic | 5.8 | – | – | – | –
